Experimental data published in patent US10624866B2, “Composition for prevention or treatment of chronic pain comprising Evans blue” (THE INDUSTRY & ACADEMIC COOPERATION IN CHUNGNAM NATIONAL …, priority 2018, dated 2020).

Tests used:
[1] = tested on: neurons of the dorsal horn in the spinal cord; experiment: NeuN immunostaining of spinal cord tissue injected with Evans blue; assay type: in vivo, white rat; conditions: dorsal horn of the spinal cord (FIGS. 5A to 5C)
Experimental: (§1) Specifically, it was immune-stained with VNUT antibody (green) to examine the expression of VNUT in the dorsal root ganglia and dorsal horn of the spinal cord. Evans blue was injected on the 7th day after the pain model surgery. On 2nd day after the injection of Evans blue, the white rat was anesthetized by intraperitoneal injection of sodium pentobarbital (100 mg/Kg). Then the phosphate buffer solution (PBS, pH 7.4) was intracardiac-perfused to entirely remove the blood, followed by perfusion with 4% paraformaldehyde to fix the result. Then, the spinal cord sites (L4 to L6) were carefully taken out, post-fixed in the same fixative overnight, and immersed in a 30% sucrose solution. Then, the tissues obtained by frozen sectioning of the spinal cord at […] were subjected to the normal serum blocking and then incubated overnight at 4° C. with VNUT (1:500; ABN 83; milipore) antibody. The next day, the result was washed with PBS and incubated with the cy2-conjugated secondary antibody (1:400) for 2 hours, and then the nuclear thereof was stained with DAPI. The tissues were attached to a slide glass and photographed using a confocal microscope (Leica, TCS SP8).
To determine whether Evans Blue targeted the neurons of the dorsal horn in the spinal cord, the spinal cord tissue injected with Evans blue was stained with NeuN, a marker for identifying neurons. […]

[2] = tested on: excitatory neurons located in the dorsal horn of the spinal cord; experiment: vGluT2 immunostaining of spinal cord tissue injected with Evans blue; assay type: in vivo, white rat; conditions: dorsal horn laminas I and II (FIGS. 5D to 5F)
[3] = tested on: inhibitory neurons distributed in laminas I and II; experiment: Calretinin immunostaining of spinal cord tissue injected with Evans blue; assay type: in vivo, white rat; conditions: laminas I and II (FIG. 4G, FIGS. 5G to 5I)
astrocytes = experiment: GFAP immunostaining of spinal cord tissue injected with Evans blue; assay type: in vivo, white rat; conditions: FIGS. 6D to 6F
[4] = tested on: microglia cells present in the dorsal horn of the spinal cord; experiment: Iba-1 immunostaining of spinal cord tissue injected with Evans blue; assay type: in vivo, white rat; conditions: laminas I to III (FIGS. 6A to 6C)
[5] = biological target: T1, vesicular nucleotide transporter (VNUT) of the dorsal root ganglia (Rattus norvegicus, UniProt P0DX21); experiment: Immunostaining with VNUT antibody after in vivo Evans blue injection, confocal microscopy; parameters: species or system white rat; conditions: dorsal root ganglia: axon, axon terminal and cell body; 2nd day after injection (FIGS. 4A to 4C)
T1 construct: examine the expression of VNUT in the dorsal root ganglia and dorsal horn of the spinal cord; from tissue; host or cells: rat dorsal root ganglia and spinal cord (L4 to L6) sections after in vivo Evans blue injection
T1 sequence (P0DX21 1-447): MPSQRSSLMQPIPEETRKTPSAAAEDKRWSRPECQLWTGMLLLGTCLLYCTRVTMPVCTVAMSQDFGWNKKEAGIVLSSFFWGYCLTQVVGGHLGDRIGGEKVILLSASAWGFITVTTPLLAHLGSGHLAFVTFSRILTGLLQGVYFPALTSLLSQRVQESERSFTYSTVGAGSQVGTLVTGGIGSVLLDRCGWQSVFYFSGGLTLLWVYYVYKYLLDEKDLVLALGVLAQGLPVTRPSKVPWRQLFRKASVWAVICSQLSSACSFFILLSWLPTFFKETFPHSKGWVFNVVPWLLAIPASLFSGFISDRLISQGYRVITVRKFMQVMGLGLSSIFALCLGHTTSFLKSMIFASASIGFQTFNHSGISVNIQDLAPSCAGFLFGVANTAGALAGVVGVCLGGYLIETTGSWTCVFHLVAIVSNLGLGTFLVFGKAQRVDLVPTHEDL
Experimental: To verify targeting VNUT of the dorsal root ganglia and dorsal horn of the spinal cord by Evans blue in vivo, VNUT was immune-stained, and Evans blue was administered in vivo to confirm whether it was targeted.
as §1

[6] = tested on: animal model of SNL neuropathic pain; experiment: von Frey filament test (mechanical allodynia) in spinal nerve ligation (SNL) model of neuropathic pain; assay type: in vivo, Sprague-Dawley rats
Experimental: 5-week-old male SD white rats (Sprague-Dawley rats, 150 to 180 g) were purchased and were kept in an environment where each of night and day was continuously kept for 12 hours, and the temperature was maintained at 22±2° C. Further, water and feed were freely available for rats, and the rats were fed three or less per cage. At 6 weeks of age after adapted in an experimental environment for 7 days before the experiment, the rats responsive to stimulation of 8 g or more of von Frey filament were only selected, and then the spinal nerve ligation (SNL) procedure was performed thereon, inducing neuropathic pain (NPP). More specifically, after general anesthesia with respiratory anesthesia with isoflurane, the left lumbar (L6) […] was carefully removed for differentiation of the L4 and L5 spinal nerves (FIGS. 1A to 1B), and then the L5 spinal nerve was ligated with a silk suture thread (3-0), and the wound was sutured to prepare an experimental animal model of SNL neuropathic pain (FIGS. 1C to 1D). The analgesic effect of Evans blue of the present disclosure was confirmed by measuring mechanical hyperalgesia using the animal model of neuropathic pain. The von Frey filament test (test for mechanical allodynia) is a method for measuring the degree of mechanical allodynia after animal pain modeling. The rats were placed in an acrylic box disposed on a wire mesh test bench with a mesh size of 2×2 mm and adapted for at least 15 minutes. After the rats became quiet in movement, the pain threshold values (g) of the rat were evaluated using the von Frey filaments (Stoelting, USA) having a thickness of 0.4, 0.6, 1, 2, 4, 6, 8, and 15 g. […] The central part thereof was stimulated with von Frey filaments. When there was a positive reaction, stimulation was performed with weak filaments. When there was no positive reaction, stimulation was performed with strong filaments. As a result, the reduction of the pain threshold for the von Frey filament test on the seventh day after the pain model surgery was the maximum. From the seventh day when the reduction of the pain threshold for the von Frey filament test after the pain model surgery was the maximum, Evans blue (EB) was injected intrathecal injection with a Hamilton syringe, and the hind paw of the […] was stimulated with the von Frey filament to the measure minimum pain threshold. Changes in pain threshold were measured after 2 hours, 1 day, 2 days, 3 days, 5 days, and 7 days. At this time, 10 μl physiological saline was administered to the control group, and Evans blue was administered at various concentrations (5, 15, and 50 μg/10 μl).

**Q.** What does the source list for `Cc1cc(-c2ccc(/N=N/c3ccc4c(S(=O)(=O)O)cc(S(=O)(=O)O)c(N)c4c3O)c(C)c2)ccc1/N=N/c1ccc2c(S(=O)(=O)O)cc(S(=O)(=O)O)c(N)c2c1O` [Evans blue]?
**A.** overlap of NeuN (neuron marker) signals with Evans blue [1]: most signals of NeuN, which is a neuron marker, overlapped; targeting of excitatory neurons (vGluT2 stained around cell bodies of neurons targeted by Evans blue) [2]: targeted excitatory neurons; overlap of calretinin (inhibitory neurons) with Evans blue [3]: did not overlap; overlap of GFAP (astrocyte marker) signal with Evans blue (astrocytes): did not overlap; overlap of Iba-1 (microglial cell marker) signal with Evans blue signal [4]: partially overlapped; overlap of Evans blue signal with VNUT expression [5]: overlaps; intensity of pain (pain threshold) than before Evans blue treatment (0D) ([6]; 5 μg intrathecal, on the 2nd and 3rd day (p<0.05)): significant increase; intensity of pain (pain threshold) than before Evans blue treatment (0D) ([6]; 15 μg intrathecal, after 2 hours and the 1st day (p<0.05)): significant increase; intensity of pain (pain threshold) than before Evans blue treatment (0D) ([6]; 50 μg intrathecal, after 2 hours and the 1st day (p<0.01), the 2nd day (p<0.001), the 3rd day, the 5th day (p<0.05)): significant increase; intensity of pain (pain threshold) compared to the control group treated with physiological saline ([6]; 50 μg intrathecal, on the 2nd day (p<0.001)): significant increase; analgesic effect on pain (pain threshold, von Frey filament test) ([6]; SNL rats, intrathecal injection on day 7 after surgery, 5, 15 and 50 μg/10 μl, versus control group treated only with physiological saline): overall increased meaningfully; time of peak analgesic effect ([6]; after intrathecal injection, gradually decreased thereafter): 3 days
